The values below come from patent US11583570B2, “Use of autoinducer-related pathway in inducing apoptosis and anti-infective therapy” (TSINGHUA UNIVERSITY, priority 2017, dated 2023).

One series addresses T1, TNFR1 (1-293) mutant (Homo sapiens, UniProt P19438).
T1 construct: human TNFR1 (1-293) mutant was amplified from human TNFR1 with specific primers and cloned into peGFP-N1 vector; expressed in transfected cells; host or cells: HeLa cells
T1 sequence (P19438 30-293): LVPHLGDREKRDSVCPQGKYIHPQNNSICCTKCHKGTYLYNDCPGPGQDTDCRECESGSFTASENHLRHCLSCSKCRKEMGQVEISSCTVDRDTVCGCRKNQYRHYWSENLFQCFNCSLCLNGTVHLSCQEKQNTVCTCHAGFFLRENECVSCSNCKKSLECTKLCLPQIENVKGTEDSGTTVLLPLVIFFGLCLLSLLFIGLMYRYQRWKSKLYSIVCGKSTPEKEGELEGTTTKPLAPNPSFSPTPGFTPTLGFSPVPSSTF
Nature of the series: Single molecule photo-bleaching step counting (MSFQ), TNFR1 in HELA cells. The format is cell-based. The text has this:
Then the cells were stimulated with HSLs, TNF α, or left untreated, and washed twice with PBS and fixed with 4% paraformaldehyde before imaging. GFP was excited at 488 nm with a laser power of 5 mW measured after the laser passing through the objective. […] The EM gain of the EMCCD camera was set at 300. Movies of 400 frames were acquired for each sample at a full-frame rate of 10 Hz. For imaging analysis, the background fluorescence was firstly subtracted from the movie acquired from the fixed cells using the rolling ball method in Image J software, and regions of interest on movies were selected manually according to the outline of cells. To analyze the bleaching steps, the fluorescence time courses of each fluorescent spots were first constructed by Image J plugin and bleaching steps were then counted manually.

In another series the test system is THP-1 cell line. Description: Annexin V/PI apoptosis detection, THP-1. The format is cell-based, human. The settings on record: THP-1, 3OC plus Emricasan, 1 hr, AnnexinV and PI. The protocol: (§1) Cell apoptosis was detected with Annexin V/PI apoptosis detection Kit. Briefly, cells were stimulated with HSLs or left untreated. 6 hrs later, cells were collected and stained with Annexin VFITC and PI for 15 min at RT, then the apoptotic effect was measured by flow cytometry. OT-I or OT-II splenocytes were pulsed with specific peptides or PMA and ionomycin mixture with or without HSLs or TNF α plus cycloheximide. 24 hrs later, cells and supernatants were collected separately. For OT-I activation, cells were stained with CD69 and CD8. For OT-II activation, cells were stained with CD69 and CD4. Cell activation was measured by flow cytometry. All supernatants were detected for IL-2 secretion by ELISA.
(§2) In order to verify TNFR1-FADD-caspase8-caspase3 pathway inhibitor can block immunocyte apoptosis caused by 3OC12-HSL clinically. The inventors use a clinical version of caspase inhibitor Emricasan as a test. […] To be specific, in a 12 plate, THP-1 cells were cultured with indicated concentrations of 3OC and Emricasan. After 1 hr, cells were collection for flow cytometric analysis of AnnexinV and PI. […] In FIG. 17b, live cell percentage of different treatment were enumerated by flow cytometry. Bar graphs of live cell percentage are depicted by mean±SEM. Then samples prepared as in FIG. 17a and FIG. 17b were used for WB analysis for the activation (cleavage) of Caspase 8 and 3. […]

Another series deals with mouse splenocytes. Description: AnnexinV and PI staining, B6 splenocytes. The format is cell-based. On the procedure:
as §1, §2

Another series has as its system Caspase 8 and 3. Description: WB analysis of Caspase 8 and 3 cleavage in THP-1. The class given is cell-based, human. Particulars: THP-1, 1 hr and 2 hr. The protocol:
In order to verify TNFR1-FADD-caspase8-caspase3 pathway inhibitor can block immunocyte apoptosis caused by 3OC12-HSL clinically. The inventors use a clinical version of caspase inhibitor Emricasan as a test. […] To be specific, in a 12 plate, THP-1 cells were cultured with indicated concentrations of 3OC and Emricasan. After 1 hr, cells were collection for flow cytometric analysis of AnnexinV and PI. […] In FIG. 17b, live cell percentage of different treatment were enumerated by flow cytometry. Bar graphs of live cell percentage are depicted by mean±SEM. Then samples prepared as in FIG. 17a and FIG. 17b were used for WB analysis for the activation (cleavage) of Caspase 8 and 3. […] In FIG. 17c, the incubate time of the left panel is 1 hr, and the […] panel is 2 hr. (Casp 8: Caspase 8, Cld Casp 8: Cleaved-Caspase 8, Casp 3: Caspase 3, Cld Casp 3: Cleaved-Caspase 3). […] Furthermore, the inventors use B6 splenocytes (separated from C57BL/6 spleen) as the test.

Another series addresses T2, TNFR1 (Mus musculus, UniProt P25118).
T2 construct: To track individual TNFR1 on the cell membrane; endogenous in cells
T2 sequence (P25118 30-454): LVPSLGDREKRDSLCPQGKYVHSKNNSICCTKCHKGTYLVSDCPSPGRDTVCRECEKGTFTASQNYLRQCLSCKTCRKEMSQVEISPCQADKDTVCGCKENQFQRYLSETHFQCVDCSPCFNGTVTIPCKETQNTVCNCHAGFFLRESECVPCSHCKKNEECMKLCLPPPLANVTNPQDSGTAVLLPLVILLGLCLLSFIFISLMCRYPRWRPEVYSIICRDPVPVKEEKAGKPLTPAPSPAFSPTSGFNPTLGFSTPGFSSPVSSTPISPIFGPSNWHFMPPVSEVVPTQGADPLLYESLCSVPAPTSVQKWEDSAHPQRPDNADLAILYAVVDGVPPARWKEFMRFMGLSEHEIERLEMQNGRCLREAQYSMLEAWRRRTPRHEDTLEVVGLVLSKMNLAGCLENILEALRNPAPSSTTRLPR
Description: Quantum dot-based single particle tracking, TNFR1. The format is cell-based. The protocol: To track individual TNFR1 on the cell membrane, anti-TNFR1 IgG (was first papain digested to yield a Fab fragment. The Fab was then conjugated with biotin through the unique —SH at its C terminal. To prepare anti TNFR1 Fab QD conjugates, a solution of 0.7 nM anti TNFR1—Fab-biotin in 1 ml of DMEM was added drop-wise to 1 ml of 2 nM QD 605-streptavidin conjugate. Cell monolayers (50% confluent) previously serum starved for 1 hr were treated with 3OC12 HSL or left untreated and incubated with […] of the final anti TNFR1-Fab-QD solution at 25° C. for 2 min. The cells were then washed twice with PBS at 25° C., placed in serum-free medium, and loaded for imaging. For single-FcRγIIA tracking, Fc fragment was obtained by papain digestion of an anti-BSA IgG (Sigma Aldrich). Fc-QD conjugate was produced as described before. Cos-1 cells were transiently transfected with Fcγ RIIA plasmid, 24 hrs later, cells were stimulated with 3OC12 HSL or left untreated and incubated with […] of the final Fc-QD solution at 25° C. for 2 min. Quantum dot-labeled cells were imaged in TIRF mode. The fluorescence was excited at 488 nm and gated by a band-pass filter (575-640, Carl Zeiss). The excitation power was about 2 mW measured after the objective. Movies of 400 frames were acquired for each sample at a full-frame rate of 17 Hz. Individual trajectories were constructed by Utrack written in Matlab. Diffusion coefficient and plot area were calculated by customized programs written with Matlab. For motion pattern determination by MSD-t analysis 5: linear, simple Brownian diffusion; open-up parabolic, directed diffusion; open-down parabolic, restricted diffusion; and near zero, stationary.

The test system of series [1] is 3OC12 HSL-induced cytotoxicity. Nature of the series: Caspase inhibitors against 3OC12 HSL cytotoxicity. The class given is cell-based. The settings on record: in comparison with 3OC12 HSL treatment alone. On the procedure:
as §1

As to `CCCCCC(=O)CC(=O)N[C@H]1CCOC1=O` [3-oxo-C8], the “TNFR1 trimerization (three step quenching)” value at TNFR1 (1-293) mutant was “failed to increase”.

For the compound `C[C@H](NC(=O)C(=O)Nc1ccccc1C(C)(C)C)C(=O)N[C@@H](CC(=O)O)C(=O)COc1c(F)c(F)cc(F)c1F` [Emricasan], the “blocking of 3OC12-HSL's apoptosis” value in the series with THP-1 cell line and in the series on mouse splenocytes was “good effect in blocking 3OC12-HSL's apoptosis” in each case. Also, in the series with Caspase 8 and 3, the “blocking of Caspase 8 and 3 cleavage” value was “has effect in blocking 3OC12-HSL's apoptosis mediated by Caspase”.

Consider MβCD, for which, at TNFR1, the TNFR1 diffusion coefficient result is recorded as “higher diffusion coefficient” and the “TNFR1 x-y surface area coverage” value is listed as “larger area coverage”.

With TNFα, the “TNFR1 trimerization (three step quenching)” value at TNFR1 (1-293) mutant was “similarly occurred”.

On to Z-VAD, for which the “effect on 3OC12 HSL cytotoxicity” value in series [1] was “reduced the cytotoxicity”.
